Test results published in patent US20060094775A1, “Remedy for corneal ulcer” (priority 2003, published 2006).
“Also recorded” adds a separate entry of the source.

What was measured:
[1] = test system: rabbit corneal stromal cells; test: Measurement of collagen degradation activity after three-dimensional collagen gel culture (hydroxyproline per well); format: cell-based; conditions: IL-1β 0.1 ng/ml, 48 hr three-dimensional culture, various concentrations
Procedure: (§1) Rabbit corneal stromal cells were prepared and cultured according to the description of Mishima et al., Invest. Ophthalmol. Vis. Sci. 28, 1521-6 (1987). The rabbits were sacrificed by overdose of sodium pentobarbital. Eyeballs were enucleated, sclera was incised to remove cornea. Stroma was separated from epithelium and endothelium. Corneal stromal cells were detached from stroma by digesting with collagenase (Collagenase from Clostridium histolyticum, Sigma (U.S.A.) #C-0130) (2 mg/ml) at 37° C. for 3-4 hr. The cells were cultured in MEM supplemented with 10% fetal bovine serum (FBS), grown in an incubator (37° C. humidity 100%) in 5% CO2 and then passaged in MEM containing 10% FBS.
Collagen gel was prepared according to the manual of Nitta gelatin. To be specific, the obtained rabbit corneal stromal cells were washed with PBS(−), 0.05% Trypsin (1 ml) was added thereto, and the mixture was left in a CO2 incubator for several min to detach the cells. […] The number of the cells was counted with Burker-Turk hemocytometer (Kayagaki Irika Kogyo). […]
After three-dimensional culture, the medium was collected and non-degraded collagen fibril having a molecular weight exceeding 100 kDa was removed by ultrafiltration. […] The amount of the hydroxyproline in the hydrolysate was measured using an Ehrlich's reagent and a spectrophotometer (Bergman et al., Anal. Chem., 35, 1961-5 (1963)). […]

[2] = test system: glycosylated proMMP-1, proMMP-1, MMP-1, proMMP-3 and MMP-3 in rabbit corneal stromal cells; test: Western blot of culture medium for MMP-1 and MMP-3 forms after three-dimensional culture; format: cell-based; conditions: IL-1β addition
Procedure: as §1
Collagen gel was prepared according to the manual of Nitta gelatin. To be specific, the obtained rabbit corneal stromal cells were washed with PBS(−), 0.05% Trypsin (1 ml) was added thereto, and the mixture was left in a CO2 incubator for several min to detach the cells. MEM (5 ml) containing 10% FBS was added to quench the trypsin reaction. The cell suspension was transferred to a 15 ml centrifuge tube, and centrifuged at 1500 rpm for 5 min. The supernatant was removed and the cells were suspended in a constant amount of serum free MEM. The number of the cells was counted with Burker-Turk hemocytometer (Kayagaki Irika Kogyo). The supernatant was removed by centrifugation at 1500 rpm for 5 min. […]

[3] = test system: proMMP-9, MMP-9, proMMP-2 and MMP-2 in rabbit corneal stromal cells; test: Gelatin zymography of culture medium for MMP-2 and MMP-9 forms after three-dimensional culture; format: cell-based; conditions: for effect on expression of MMPs and proMMPs (gelatin zymography): plasminogen addition, IL-1β 0.1 ng/ml (Example 2, FIG. 9)
Procedure: as §1
Collagen gel was prepared according to the manual of Nitta gelatin. To be specific, the obtained rabbit corneal stromal cells were washed with PBS(−), 0.05% Trypsin (1 ml) was added thereto, and the mixture was left in a CO2 incubator for several min to detach the cells. MEM (5 ml) containing 10% FBS was added to quench the trypsin reaction. The cell suspension was transferred to a 15 ml centrifuge tube, and centrifuged at 1500 rpm for 5 min. The supernatant was removed and the cells were suspended in a constant amount of serum free MEM. The number of the cells was counted with Burker-Turk hemocytometer (Kayagaki Irika Kogyo). The supernatant was removed by centrifugation at 1500 rpm for 5 min. Serum free MEM was added to give a cell suspension (2200000 cells/ml). A. acid-solubilized Type I collagen (3 mg/ml), B. 5-fold concentration of DMEM, C. reconstruction buffer (0.05N NaOH, 0.26 M NaHCO3, 0.2 M HEPES, pH 7.3) and D. a cell suspension (2.2×10^6 cells/ml) were mixed at a ratio of A:B:C:D=7:2:1:1 while cooling on ice. The collagen solution was placed in a 24 well culture plate at 0.5 ml/well, and stood in an incubator at 37° C. 5% CO2 for 0.5-5 hr. Then, 0.5 ml of serum free MEM containing IL-1β (0.1 ng/mL) and various concentrations of triptolide or dexamethasone was overlaid and cultured for 48 hr. […]

[4] = test system: TIMP-1 production (mRNA) in rabbit corneal stromal cells; test: RT-PCR of TIMP-1 mRNA after three-dimensional culture; format: cell-based; conditions: IL-1β 0.1 ng/ml; dexamethasone 1 nM, triptolide 3 μM
Procedure: as §1
Collagen gel was prepared according to the manual of Nitta gelatin. […] The number of the cells was counted with Burker-Turk hemocytometer (Kayagaki Irika Kogyo). […]
After three-dimensional culture, collagenase was added to dissolve the collagen gel, and the cells were collected. […] This cDNA, QuantiTect SYBR Green PCR Master Mix solution (QuantiTect-SYBR Green PCR kit, manufactured by Qiagen, Germany), nuclease free water and rabbit TIMP-1 primer (synthesis at Nippon Gene Institute, Han et al., Nagoya J. Med. Sci. 62, 115-126 (1999)) were mixed, and the expression amount of TIMP-1 mRNA was examined using LightCycler (manufactured by Roche Molecular Biochemicals, Germany).

[5] = test system: proMMPs 1 and 3 in human synovial fluid fibroblast; conditions: cited from earlier work

Compound | effect on IL-1β induced collagen degradation (amount of degraded collagen as hydroxyproline per well) [1] | effect on expression and activation of proMMPs (Western blot) ([2]; 60 mg/ml plasminogen addition) | effect on expression of proMMPs (Western blot) ([2]; plasminogen non-addition) | effect on expression and activation of proMMPs (gelatin zymography) ([3]; 60 mg/ml plasminogen addition, IL-1β addition (Example 1)) | effect on expression of MMPs and proMMPs (gelatin zymography) [3] | effect on TIMP-1 production (relative copy number of mRNA) [4] | effect on production of proMMPs 1 and 3 [5]
CC(C)[C@]12O[C@H]1[C@@H]1O[C@]13[C@]1(O[C@H]1C[C@H]1C4=C(CC[C@@]13C)C(=O)OC4)[C@@H]2O [triptolide] | suppress IL-1β induced collagen degradation in a concentration dependent manner; also recorded: suppresses IL-1β induced collagen degradation in a concentration dependent manner | suppresses increase and activation of glycosylated proMMP-1, proMMP-1 and proMMP-3 | suppresses increase of glycosylated proMMP-1, proMMP-1 and proMMP-3 induced by IL-1β | activation of proMMP-9 | suppresses increase of proMMP-2 and MMP-2, as well as activation of proMMP-9 | does not | suppresses production of proMMPs 1 and 3
CC(C)[C@]12O[C@H]1[C@@H]1O[C@@]13[C@@]1(C)CCC4=C(COC4=O)[C@@H]1C[C@@H]1O[C@@]13C2OC(=O)CCC(=O)[O-].[Na+] (stereo partly drawn) [triptolide succinate sodium salt] | suppress IL-1β induced collagen degradation in a concentration dependent manner |  |  |  | suppresses increase of MMP-2 and activation of MMP-9 |  | 
